Reference: patent publication US7557109B2, “Treatment for attention-deficit hyperactivity disorder” (priority 2001, dated 2009)

Columns and labels:
wild-type mice [1] = experiment: Open-field locomotor activity, wild-type littermates; assay type: in vivo
From the text: Heterozygote coloboma mice were originally purchased from The Jackson Laboratory (Bar Harbor, Me.) and were bred and maintained in our colony. In the current study, 20 mutant mice and 25 wild-type littermates, all aged 8 to 10 weeks, were used. Animals were divided into 4 groups: mutant/drug-treatment (n=11), mutant/vehicle-control (n=9), wild-type/drug-treatment (n=13), wild-type/vehicle-control (n=12). Age and gender were balanced among groups. All animals were housed as littermates (2-4 mice per cage) and were maintained on ad libitum food and water with a 12 hr light/dark cycle.
Open-field testing was performed under normal lighting conditions. Mice were brought into the experimental room and allowed at least 1 hr of acclimatization. Thirty minutes prior to testing, animals received an ip. injection of either d-amphetamine (4 mg/kg), eltoprazine (0.5 mg/kg) or saline. The mice were then placed in the activity monitor arenas (27×27×20 cm, Med Associates). Four animals of matching genotype and treatment were tested at one time. Each testing session lasted 40 minutes, after which animals were returned to their home cages. An automated infrared beam array system measured locomotor activity (total distance traveled) and number of center entries (zone crossings).

wild-type mice [2] = experiment: DRL-36s schedule after FR5 conditioning, wild-type mice; assay type: in vivo
Procedure: Experiments were conducted in eight identical mouse operant chambers (16×14×13 cm) with stainless steel grid floors (ENV-307M; Med Associates Inc., Georgia, Vt., USA) housed in sound-insulating and ventilated cubicles. Each chamber was equipped with two ultra-sensitive retractable levers, one on each side of a food cup containing photocells to register nose poke behavior and in which a pellet dispenser delivered 20 mg food pellets (Formula A/I, P.J. Noyes Company Inc., Lancaster, N.H., USA). A red house light (50 lux) was located in the center of the wall opposite to the food cup and levers. Stimulus lights were located above each lever and above the food cup. Experimental sessions were controlled and data were recorded by a computer.
Mice trained on DRL procedure first received operant conditioning. DRL-36s task was adapted from procedures used in rats (O'Donnell and Seiden, supra). Briefly, mice first learned to respond for food under a DRL 6 sec schedule, which means that mice had to wait at least 6 seconds between successive lever presses in order to obtain a food reward. Subsequently the schedule requirement was increased every session in steps of 6 sec to 36 sec (DRL 36 sec). Each session started with the illumination of the house light, the stimulus light above the food cup and the presentation of the left lever for the duration of the session. […] If the mouse presses too soon, no reinforcement is given, the clock is reset to zero, and a new 36-sec waiting period starts. In this way, the DRL-36s schedule task primarily measures waiting strategies which reflect hyperactivity-impulsivity behaviors associated with ADHD. Animals were trained until performances on the DRL 36 sec schedule had stabilized (approximately 25 sessions). All training sessions lasted 60 min and were conducted 5 days per week from Monday-Friday. The total number of lever presses (responses), the total number of reinforcements, and the inter-response times (IRT) are recorded.
Data were analyzed as described elsewhere (Richards et al., J. Exp. Anal. Behav. 60:361-385, 1993; Sabol et al., Psychopharmacology 121:57-65, 1995). The inter-response time (IRT) analysis included three measures for the characterization of DRL 36 sec IRT distributions: peak area, peak location and burst ratio. Only peak area (PkA) and peak location (PkL) are presented. The PkA measure is the area of the obtained IRT distribution of a mouse above the corresponding negative exponential, a computation based on mean of obtained IRT durations excluding the burst component of IRT<3 sec (see Richards et al., supra, for details). […] Thus, decreases in PkA indicate that the mouse's IRT distribution becomes more similar to random performance indicating loss of schedule control. PkL is calculated as the median of the area of the obtained IRT distribution above the corresponding negative exponential.
Mice were conditioned and challenged on a DRL-36s schedule according to the methods of Example 7, with the following modifications. Because 1BKO mice had difficulty learning the DRL-36s schedule following conditioning on an FR1, wild-type and 1BKO mice were conditioned on a fixed rate 5 (FR5) schedule. In FR5, instead of pressing the lever once for a reward, animals have to press 5 times. The rationale for changing the operant conditioning was that by increasing the number of responses necessary for reinforcement, the wild-type mice should have greater difficulty and the 1BKO (which have higher response rates anyway) should have less difficulty getting reinforcements.

[3] = tested on: DA and 5-HT release in dorsal striatum; experiment: In vivo microdialysis of DA and 5-HT release in dorsal striatum, wild-type mice; settings: 0.1 mg/kg i.p.
From the text: Wild-type and 5-HT1B knock out mice were implanted with microdialysis probes according to the methods of DeGroote et al., incorporated herein by reference, with the following modifications. (DeGroote et al., Eur. J. Pharmacol., 439:93-100, 2002). The dialysis probe was placed in the dorsal striatum, at coordinates AP +0.80, ML −1.7 mm from bregma, DV −4.0 mm from the dura, according to the stereotaxic atlas of the mouse brain (Franklin and Paxinos, 1997), and with the toothbar set at 0 mm. Microdialysis experiments were begun 16-20 hours after surgery, using previously described methods, which are incorporated herein by reference (DeGroote et al., 2002). After the start of the dialysis probe perfusion, mice were left undisturbed for three hours. Mice were tested in their home cage during the light period. Samples were collected every 20 minutes in vials containing 7.5 μl acetic acid and stored at −80° C. until HPLC analysis.
Release of DA and 5-HT was measured after peripheral administration of eltoprazine or intrastriatal administration of the selective 5-HT1B receptor agonist CP 93129 dihydrochloride (1,4-Dihydro-3-(1,2,3,6-tetrahydro-4-pyridinyl)-5H-pyrrolo[3,2-b]pyridin-5-one, obtained from Tocris, UK.) Drugs were dissolved in distilled water and further diluted in Ringer solution to the final concentration on the day of the experiment. 5-HT and DA were analyzed by HPLC with electrochemical detection. Samples (25 μl) were injected onto an Inertsil ODS-3 column (3 μM, 2.1×100 mm, Aurora Borealis, The Netherlands) using a Gilson pump and autosampler (Separations, The Netherlands). Separation was performed at 40° C. with the electrochemical detector (Intro, ANTEC Leyden, The Netherlands) set at a potential of 600 mV against an Ag/AgCl reference electrode. The signal was analyzed using Gynkotek software. The mobile phase consisted of 5 g/l (NH4)2SO4, 150 mg/l heptane sulphonic acid sodium salt, 0.5 g/l EDTA, 5% methanol, 30 μl/l triethylamine, 30 μl/l acetic acid, pH 4.6. Flow rate was 0.3 ml/min. The detection limit for 5-HT was 0.5 fmol/25 μl sample (signal to noise ratio 2).
Values for the first four consecutive microdialysis samples were averaged to calculate the basal levels of extracellular 5-HT and DA, uncorrected for probe recovery. Student's t-tests were used to compare basal 5-HT and DA values between the two genotypes. Effects of drug treatment were analyzed by a repeated multivariate analysis of variance (ANOVA) with time as ‘within’ and treatment (or dose) and genotype as ‘between’ factors.

Question: With `c1cc2c(c(N3CCNCC3)c1)OCCO2` [eltoprazine, 1-(2,3-dihydro-1,4-benzodioxanyl-5-yl) piperazine] as the molecule, how does the “locomotor activity (distance traveled or zones crossed)” value (wild-type mice [1]; 0.5 mg/kg i.p.) read?
Answer: did not influence the locomotor activity

Question: And the “exploratory preference (center vs periphery of arena)” value (wild-type mice [1]; 0.5 mg/kg i.p. (FIG. 6A, 6B))?
Answer: no effect on exploratory preference

Question: And the rearing behavior (wild-type mice [1]; 0.5 mg/kg i.p. vs saline (FIG. 6C, 6D))?
Answer: same pattern of rearing behavior

Question: And the number of reinforcements (wild-type mice [2]; 0.5 mg/kg and 1 mg/kg i.p. (FIG. 13A))?
Answer: significantly decreased reinforcements

Question: What about the response rate (wild-type mice [2]; 0.5 mg/kg i.p. (FIG. 13B)) of the same molecule?
Answer: significantly decreased response rates

Question: What about the “time after administration to decrease of DA and 5-HT release” value [3] of the same molecule?
Answer: ≤ 20 min

Question: What about the “time striatal release of DA and 5-HT remained below basal levels after administration” value [3] of the same molecule?
Answer: at least 100 minutes

Question: And the “basal release of 5-HT” value ([3]; awake mice)?
Answer: decreased basal release

Question: And the “basal release of DA” value ([3]; awake mice)?
Answer: decreased basal release
